According to ChEMBL document CHEMBL1201862, “PubChem BioAssay data set” (2004):
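Grown in 96-well plates, cells were treated for 48 hours with each compound at five concentrations. Insufficient inhibition: endpoint recorded as highest concentration tested. GI50 marks 50% less growth.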 Active and inactive are the calls of the source. Cut-off read from the data, not from the text of the source: active = GI50 up to about 1.1 µM and inactive = higher.

Assays:
Test in all cases: NCI anticancer screen, dose series, 48 h
[1] = test system: OVCAR-8
[2] = test system: T47D
[3] = test system: MCF7
[4] = test system: MDA-MB-435
[5] = test system: U-251
[6] = test system: UO-31
[7] = test system: Hs-578T
[8] = test system: SF-268
[9] = test system: SNB-75
[10] = test system: SNB-19
[11] = test system: SR
[12] = test system: CCRF-CEM
[13] = test system: HT-29
[14] = test system: M14
[15] = test system: ACHN
[16] = test system: SW-620
[17] = test system: HCT-15
[18] = test system: A549
[19] = test system: NCI-H522
[20] = test system: A498

| Structure (SMILES) | GI50 [1] | GI50 [2] | GI50 [3] | GI50 [4] | GI50 [5] | GI50 [6] | GI50 [7] | GI50 [8] | GI50 [9] | GI50 [10] | GI50 [11] | GI50 [12] | GI50 [13] | GI50 [14] | GI50 [15] | GI50 [16] | GI50 [17] [µM] | GI50 [18] | GI50 [19] | GI50 [20] |
| --- | --- | --- | --- | --- | --- | --- | --- | --- | --- | --- | --- | --- | --- | --- | --- | --- | --- | --- | --- | --- |
| Cn1c2ccccc2c(=NNc2ccc(S(=O)(=O)N=C(N)N)cc2)c2ccccc21 | 6.03 µM (inactive) | 6.35 µM (inactive) | 3.14 µM (inactive) | 11 µM (inactive) | 8.02 µM (inactive) | 4.33 µM (inactive) | 17.6 µM (inactive) | 5.75 µM (inactive) | 12.2 µM (inactive) | 10.6 µM (inactive) | 5.01 µM (inactive) | 6.68 µM (inactive) | 3.8 µM (inactive) | 16.3 µM (inactive) | 4.55 µM (inactive) | 7.55 µM (inactive) | 10.2 | 10 µM (inactive) | 3.82 µM (inactive) |  |
| CCOC(=O)c1c(SCCN2CCOCC2)n(-c2ccccc2)c(=S)n(-c2ccccc2)c1=O | > 100 µM (inactive) | 31.8 µM (inactive) | 21.2 µM (inactive) | 47.2 µM (inactive) | > 100 µM (inactive) | > 100 µM (inactive) | 37.8 µM (inactive) | 37.4 µM (inactive) | 76.2 µM (inactive) | > 100 µM (inactive) | 18.4 µM (inactive) | 30.1 µM (inactive) | 19.5 µM (inactive) | 44.8 µM (inactive) | > 100 µM (inactive) | 21.1 µM (inactive) | 20 | > 100 µM (inactive) | 43.7 µM (inactive) |  |
| c1ccc2c(c1)cc1ccc3cccc4ccc2c1c34 | > 100 µM (inactive) | > 100 µM (inactive) | 0.134 µM (active) | > 100 µM (inactive) | > 100 µM (inactive) | > 100 µM (inactive) | > 100 µM (inactive) | > 100 µM (inactive) | > 100 µM (inactive) | 81.1 µM (inactive) | > 100 µM (inactive) | > 100 µM (inactive) | > 100 µM (inactive) | > 100 µM (inactive) | > 100 µM (inactive) | > 100 µM (inactive) | 6.05 | > 100 µM (inactive) | > 100 µM (inactive) |  |
| CCN(CC)Cc1ccc(Nc2c3ccccc3nc3ccccc23)cc1 | 3.05 µM (inactive) | 4.16 µM (inactive) | 1.71 µM (inactive) | 2.04 µM (inactive) | 2.16 µM (inactive) | 1.9 µM (inactive) | 4.86 µM (inactive) | 2.82 µM (inactive) |  | 1.35 µM (inactive) | 2.17 µM (inactive) | 1.82 µM (inactive) | 1.91 µM (inactive) | 1.77 µM (inactive) | 0.364 µM (active) | 1.64 µM (inactive) | 1 | 1.28 µM (inactive) | 1.41 µM (inactive) | 3.09 µM (inactive) |
| Nc1n[n+]([O-])c2cnccc2[n+]1[O-] | 31.3 µM (inactive) | 59.7 µM (inactive) | > 10 µM (inactive) | 21.4 µM (inactive) | 58.2 µM (inactive) | > 100 µM (inactive) | > 100 µM (inactive) | 93.8 µM (inactive) | > 100 µM (inactive) | > 100 µM (inactive) | 54.7 µM (inactive) | 8.28 µM (inactive) | 39.1 µM (inactive) | 22.3 µM (inactive) | 50.9 µM (inactive) | 38.4 µM (inactive) | 32 | 33.9 µM (inactive) | > 100 µM (inactive) |  |
| CCOC(=O)c1nnc2c(C#N)c(-c3ccccc3)c(C)n2c1N | 28.4 µM (inactive) | 53.7 µM (inactive) | 39.4 µM (inactive) | 32 µM (inactive) | 38 µM (inactive) | 33.4 µM (inactive) | 24.6 µM (inactive) | 37.7 µM (inactive) |  | 21.3 µM (inactive) | 36.1 µM (inactive) | 39.7 µM (inactive) | 33.7 µM (inactive) | 34.9 µM (inactive) | 29.9 µM (inactive) | 40.6 µM (inactive) | 37.5 | 39.9 µM (inactive) | 27.7 µM (inactive) | 26.8 µM (inactive) |
